# Columns and labels:
# [1] = cited from earlier work
# [2] = test system: pediatric treatment-resistant inflammatory bowel disease (Crohn's disease and ulcerative colitis patients); conditions: oral administration; reduced symptoms of gut inflammation, increased sulphated GAG expression; cited from earlier work
# [3] = test system: PD patients with chronic constipation; experiment: Open-label pilot study of GlcNAc (Villicote) on motor and constipation symptoms in Parkinson's Disease; assay type: in vivo, human
# Source text: Participants were enlisted in a movement disorders outpatient clinic in Toronto, Canada. Inclusion criteria were a diagnosis of PD according to UK PD society brain bank criteria and chronic constipation that was not improved by laxatives. Exclusion criteria were the co-occurrence of conditions biasing results and/or changes of medications (including anti-constipation drugs).
# This was an open-label study that sought to evaluate the efficacy of GlcNAc (Villicote®, Wellesley Therapeutics Inc.) on PD patients with chronic constipation who have previously used laxatives to relieve symptoms of constipation, to little or no avail. […] The self-reported assessments evaluated motor condition and dysfunction (fluctuation and dyskinesia) using section IV of the Unified Parkinson's Disease Rating Scale (UPDRS IV) and asking about presence and frequency of delayed onset (Delayed ON) and Failure of “on” response (no ON); Perceived severity and improvement in of motor dysfunction, and constipation by means of both Patients' Global Impression-Severity (PGI-S) and Patients' Global Impressions of Change (PGI-C) scale accordingly. Severity of Constipation was also evaluated by means of questions 5 and 6 of SCOPA-AUT [17] and the Constipation Scoring System (CSS). In addition, side-effects experienced while on Villicote and qualitative feedback on the product was noted.
# Their age and disease duration was 65.7±7.5 and 11.7±5.1 years, respectively. Mean UPDRS-III at study entry was 22.1±10.9.
# [4] = PD patients treated with GlcNAc
# [5] = PD patients treated with GlcNAc, motor fluctuations
smiles,measurement,setting,value
"CC(=O)N[C@H]1C(O)O[C@H](CO)[C@@H](O)[C@@H]1O (some centres unmarked) [GlcNAc, N-acetylglucosamine]",solubility in water,[1],25%
same,efficacy in pediatric treatment-resistant inflammatory bowel disease,[2],therapeutic efficacy
same,No-ON,"[3]; After GlcNAc, 1 month time point, PD patients, before GlcNAc 0.0",0.0
same,Delayed-ON,"[3]; After GlcNAc, 1 month time point, PD patients, before GlcNAc 0.1 ± 0.4",0.1 ± 0.4
same,SCOPA-AUT (questions 5 and 6),"[3]; After GlcNAc, 1 month time point, PD patients, before GlcNAc 3.9 ± 1.9",3.1 ± 1.7
same,UPDRS-IV,"[3]; After GlcNAc, 1 month time point, PD patients, before GlcNAc 3.9 ± 2.4",3.9 ± 2.4
same,CSS (Constipation Scoring System),"[3]; After GlcNAc, 1 month time point, PD patients, before GlcNAc 9.4 ± 6.1, Wilcoxon Z=−2.043, P=0.041",6.5 ± 3.9
same,tolerability,[3]; PD patients,well-tolerated
same,anti-constipation effect,[3]; PD patients failing drugs for constipation,effective anti-constipation agent
same,PGI-I Constipation,[3]; [4],1.6 ± 1.4
same,PGI-S Constipation,[3]; [4],2.8 ± 1.3
same,PGI-I Fluctuation,[3]; [5],0
same,PGI-S Fluctuation,[3]; [5],0.8 ± 0.9
same,effect on motor functions,"[3]; PD patients, short follow-up",No effect was observed
